Like-named read-outs stand apart in the source and are kept apart here.
Assays:
Protease type-XXIV = experiment: Screening of globulin component-selective protease inhibitors (HSA substrate with/without γ-globulin); type: biochemical, Bacillus; details: additive concentration 1.0%; control 23.8
Source text: Using protease type-XXIV (manufactured by Sigma-Aldrich Co.) having high reactivity with the HSA substrate solution, components that decrease the protease reaction with the above globulin substrate solutions were screened based on the HSA substrate solution.
In the R-1 proteolytic reagent, as the deoxycholic acid amide, bisgluconamidopropyldeoxycholamide was used; as the cholic acid amide, 3-[(3-cholamidopropyl)dimethvlammonio]propane sulfonic acid, 3-[(3-cholamidopropyl)dimethylammonio]-2-hydroxypropane sulfonic acid, or bisgluconamidopropylcholamide was used; as the quaternary ammonium salt, benzyltriethylan chloride or benzyltri-n-butylammonium chloride was used; and as quatemary ammonium salt-type cationic surfactant, lauryltrimethylammonium chloride or lauryldimethylamine oxide was used.
• 1. HSA substrate solution: Albumin Human: 40 mg/ml, GA %=10.5% [manufactured by Wako Pure Chemical Industries, Ltd., the albumin concentration in the substrate solution was assayed using an albumin assay kit (albumin II-HA Test Wako; manufactured by Wako Pure Chemical Industries, Ltd.). GA % was assayed using a glycated albumin analyzer (GAA-2000, manufactured by ARKRAY, Inc.). • 2. γ-globulin addition substrate solution, 17.0 mg/ml of γ-globulin [γ-Globulins Human (manufactured by Sigma-Aldrich Co.), Fructosamine value=34 μM] was added to the above HSA substrate solution. <Reaction Procedure>
Absorbances at a wavelength of 546 nm were measured before and after the addition of R-2. The difference of the two measurements was regarded as the absorbance change. The same procedure was conducted using distilled water instead of the substrate to prepare a blank sample. In addition, a reaction solution without the addition of the globulin-selective protease inhibitor was used as a control.
ΔA (HSA) was calculated by subtracting the absorbance change of the blank sample from the absorbance change obtained for the HSA substrate solution. ΔA(+γ-globulin) was calculated by subtracting the absorbance change of the blank sample from the absorbance change obtained for the substrate solution to which γ-globulin was added. Effect of γ-globulin addition=(ΔA(+γ-globulin)−ΔA(HSA))/ΔA(HSA)×100(%)

R-FOD-II = experiment: Stabilization of enzyme reacting at least with glycated amino acid; type: biochemical; details: for stabilization effect on glycated amino acid assay reagent (relative sensitivity): without stabilizer 30%; for decrease in performance of glycated amino acid assay reagent: storage for four weeks at 37° C.; for storage stability effect: stored in a liquid state in a refrigerator
Procedure: 8 μl of a sample was added to 240 μl of the proteolytic reagent incubated at 37° C. […] A relative sensitivity for the experiment using the reagent containing a stabilizer to the experiment using the reagent not containing a stabilizer was calculated assuming that ΔA0 obtained using the reagent not containing a stabilizer and used without storing is 100%.

albumin = molecular target: T1, albumin (Homo sapiens, UniProt P02768); experiment: Albumin assay by BCP method after pretreatment with protein denaturing agent and/or compound having S—S bond; details: for albumin value by BCP method, sample GA: immunological method 8.1, no pretreatment 7.9; for albumin value by BCP method, sample NGA: immunological method 37.5, no pretreatment 36.1; for albumin value by BCP method, sample Blood serum of patients: immunological method 40.5, no pretreatment 36.2
T1 construct: from tissue; host or cells: human blood serum (healthy persons, patients; albumin purified with boric acid-immobilized resin)
T1 sequence (P02768 25-609): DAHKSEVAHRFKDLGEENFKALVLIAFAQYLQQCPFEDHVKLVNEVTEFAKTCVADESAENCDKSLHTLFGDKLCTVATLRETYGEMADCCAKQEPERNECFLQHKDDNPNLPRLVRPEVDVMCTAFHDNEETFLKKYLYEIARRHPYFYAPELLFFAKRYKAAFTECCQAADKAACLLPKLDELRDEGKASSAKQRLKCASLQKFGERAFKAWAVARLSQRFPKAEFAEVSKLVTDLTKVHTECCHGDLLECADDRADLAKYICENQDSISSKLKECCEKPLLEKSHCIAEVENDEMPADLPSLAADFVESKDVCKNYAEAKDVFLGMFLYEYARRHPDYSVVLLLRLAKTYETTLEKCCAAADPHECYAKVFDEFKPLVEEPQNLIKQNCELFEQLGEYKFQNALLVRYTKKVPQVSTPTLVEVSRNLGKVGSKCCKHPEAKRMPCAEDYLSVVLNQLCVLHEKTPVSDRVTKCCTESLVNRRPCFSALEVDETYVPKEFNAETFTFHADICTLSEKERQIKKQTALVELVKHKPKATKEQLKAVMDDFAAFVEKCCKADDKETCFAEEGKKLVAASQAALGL
Procedure: The following compounds 1)-9) were used as the protein denaturing agent and/or the compound having S—S bond in the R-1 pretreatment reagent. • 1) 6,6′-dithiodinicotinic acid: 100 mM • 2) 3,3′-dithiodipropionic acid: 100 mM • 3) 2,2′-dithiodibenzoic acid: 100 mM • 4) 4,4′-dithiodimorpholine: 100 mM • 5) DTNB (50 mM) • 6) DDD (33 mM) • 7) 2-PDS (25 mM) • 8) 4-PDS (50 mM) • 9) SDS (0.3%) • 1)-5) manufactured by Wako Pure Chemical Industries, Ltd. • 6)-9) manufactured by Dojindo Laboratories <Samples>
Glycated lbumin, non-glycated albumin, blood serum of healthy persons, and blood serum of patients were used as samples, and distilled water was used as a blank. Glycated albumin and non-glycated albumin were obtained from human blood serum, albumin was purified by known method and using a boric acid-immobilized resin.
2 μl of a sample was added to 160 μl of the pretreatment reagent incubated at 37° C. […] Absorbance at 600 nm was measured before the addition of the albumin coloring reagent and five minutes after the addition of the albumin coloring reagent. A calibration curve was prepared using distilled water and a sample with a known albumin concentration instead of the sample. A sample was separately assayed by an immune method using a latex reagent (LX reagent, Alb-II, manufactured by Eiken Chemical Co., Ltd.) as a control.

[1] = stored at 37° C. for two days, FIG. 6
[2] = pretreatment reagent at concentration of b299
[3] = pretreatment reagent at concentration of b299, immunological method 43.0, no pretreatment 38.4

C[C@H](CCC(=O)O)[C@H]1CC[C@H]2[C@@H]3[C@H](O)C[C@@H]4C[C@H](O)CC[C@]4(C)[C@H]3C[C@H](O)[C@]12C [Cholic acid]
Effect of γ-globulin (%) (Protease type-XXIV): 23.0%

[Cl-].[Cl-].[Mg+2] [magnesium chloride, Magnesium chloride]
stabilization effect on glycated amino acid assay reagent (relative sensitivity) (R-FOD-II; [1]): stabilization effect

CCCCCCCCCCCC[N+](C)(C)[O-] [Lauryldimethylamine oxide]
Effect of γ-globulin (%) (Protease type-XXIV): 17.8%

O=C(O)[C@@H]1CCCN1 [L-proline, L-Proline]
stabilization effect on glycated amino acid assay reagent (relative sensitivity) (R-FOD-II; [1]): stabilization effect

CC[N+](CC)(CC)Cc1ccccc1.[Cl-] [Benzyltriethylammonium chloride]
Effect of γ-globulin (%) (Protease type-XXIV): 16.5%

c1cc(SSc2ccncc2)ccn1 [Reagent 8, 4,4′-dithiopyridine]
effect of pretreatment on decreasing deviation from the immune method (albumin): particularly remarkable | albumin value by BCP method, sample GA (albumin; [2]): 7.5 | albumin value by BCP method, sample NGA (albumin; [2]): 36.2 | albumin value by BCP method, sample Blood serum of patients (albumin; [2]): 36.2 | albumin value by BCP method, sample Blood serum of healthy parsons (albumin; [3]): 38.8

CC(CCC(=O)NCCC[N+](C)(C)CC(O)CS(=O)(=O)[O-])C1CCC2C3C(O)CC4CC(O)CCC4(C)C3CC(O)C12C (stereo not shown) [3-[3-cholamidopropyl)dimethylammonio]-2-hydroxypropane sulfonic acid]
Effect of γ-globulin (%) (Protease type-XXIV): 18.0%

C1CN(SSN2CCOCC2)CCO1 [Reagent 4, 4,4′-dithiodimorpholine]
effect of pretreatment on decreasing deviation from the immune method (albumin): particularly remarkable | albumin value by BCP method, sample GA (albumin; [2]): 7.7 | albumin value by BCP method, sample NGA (albumin; [2]): 39.5 | albumin value by BCP method, sample Blood serum of patients (albumin; [2]): 31.3 | albumin value by BCP method, sample Blood serum of healthy parsons (albumin; [3]): 41.3

C[C@H](CCC(=O)N(CCCNC(=O)[C@H](O)[C@@H](O)[C@H](O)[C@H](O)CO)CCCNC(=O)[C@H](O)[C@@H](O)[C@H](O)[C@H](O)CO)[C@H]1CC[C@H]2[C@@H]3CC[C@@H]4C[C@H](O)CC[C@]4(C)[C@H]3C[C@H](O)[C@]12C [N,N-Bis(3-D-gluconamidopropyl)deoxycholamido]
Effect of γ-globulin (%) (Protease type-XXIV): 19.9%

NCCCC[C@H](N)C(=O)O [L-lysine, L-Lysine]
stabilization effect on glycated amino acid assay reagent (relative sensitivity) (R-FOD-II; [1]): stabilization effect

CCCCCCCCCCCCOS(=O)(=O)[O-].[Na+] [Reagent 9, sodium lauryl sulfate]
albumin value by BCP method, sample Blood serum of healthy parsons (albumin): 43.7 | effect of pretreatment on decreasing deviation from the immune method (albumin): particularly remarkable | albumin value by BCP method, sample GA (albumin; [2]): 7.8 | albumin value by BCP method, sample NGA (albumin; [2]): 37.4 | albumin value by BCP method, sample Blood serum of patients (albumin; [2]): 40.7

N.N.O=S(=O)(O)O [ammonium sulfate, Ammonium sulfate]
stabilization effect on glycated amino acid assay reagent (relative sensitivity) (R-FOD-II; [1]): stabilization effect

OC[C@@H](O)[C@@H](O)[C@H](O)[C@@H](O)CO [sorbitol, Sorbitol]
stabilization effect on glycated amino acid assay reagent (relative sensitivity) (R-FOD-II; [1]): stabilization effect

O=C(O)c1ccc(SSc2ccc(C(=O)O)cn2)nc1 [Reagent 1, 6,6′-dithiodinicotinic acid]
albumin value by BCP method, sample Blood serum of healthy parsons (albumin): 38.2 | albumin value by BCP method, sample GA (albumin; [2]): 7.6 | albumin value by BCP method, sample NGA (albumin; [2]): 35.6 | albumin value by BCP method, sample Blood serum of patients (albumin; [2]): 36.7

Alkylbenzyldimethylammonium chloride
Effect of γ-globulin (%) (Protease type-XXIV): 23.2%

OC[C@H]1O[C@@](CO)(O[C@H]2O[C@H](CO)[C@@H](O)[C@H](O)[C@H]2O)[C@@H](O)[C@@H]1O [sucrose, Sucrose]
stabilization effect on glycated amino acid assay reagent (relative sensitivity) (R-FOD-II; [1]): stabilization effect

CC(C)[C@H](N)C(=O)O [L-valine, L-Valine]
stabilization effect on glycated amino acid assay reagent (relative sensitivity) (R-FOD-II; [1]): stabilization effect

C[N+](C)(C)Cc1ccccc1.[Br-] [Benzyltrimethylammonium bromide]
Effect of γ-globulin (%) (Protease type-XXIV): 23.1%

NC(=O)CC[C@H](N)C(=O)O [L-glutamine, L-Glutamine]
stabilization effect on glycated amino acid assay reagent (relative sensitivity) (R-FOD-II; [1]): stabilization effect

CCCCCCCCCCCC[N+](C)(C)C.[Cl-] [Lauryltrimethylammonium chloride]
Effect of γ-globulin (%) (Protease type-XXIV): 16.7%

CCCC[N+](CCCC)(CCCC)Cc1ccccc1.[Cl-] [Benzyltributylammonium chloride]
Effect of γ-globulin (%) (Protease type-XXIV): 15.1%

O=C(O)CCSSCCC(=O)O [Reagent 2, 3,3′-dithiodipropionic acid]
albumin value by BCP method, sample GA (albumin; [2]): 7.9 | albumin value by BCP method, sample NGA (albumin; [2]): 35.7 | albumin value by BCP method, sample Blood serum of patients (albumin; [2]): 37.0 | albumin value by BCP method, sample Blood serum of healthy parsons (albumin; [3]): 37.9

C[C@H](N)C(=O)O [L-alanine, L-Alanine]
decrease in performance of glycated amino acid assay reagent (R-FOD-II): almost no decrease in performance | stabilization effect on glycated amino acid assay reagent (relative sensitivity) (R-FOD-II; [1]): stabilization effect | storage stability effect (R-FOD-II): one or more years

CNCC(=O)O [sarcosine, Sarcosine]
decrease in performance of glycated amino acid assay reagent (R-FOD-II): almost no decrease in performance | strength of stabilization effect (R-FOD-II; [1]): particularly strong stabilization effect | stabilization effect on glycated amino acid assay reagent (relative sensitivity) (R-FOD-II; [1]): stabilization effect | storage stability effect (R-FOD-II): one or more years

c1ccc(SSc2ccccn2)nc1 [Reagent 7, 2,2′-dithiopyridine]
effect of pretreatment on decreasing deviation from the immune method (albumin): particularly remarkable | albumin value by BCP method, sample GA (albumin; [2]): 7.8 | albumin value by BCP method, sample NGA (albumin; [2]): 36.8 | albumin value by BCP method, sample Blood serum of patients (albumin; [2]): 36.8 | albumin value by BCP method, sample Blood serum of healthy parsons (albumin; [3]): 38.9

N[C@@H](CCC(=O)O)C(=O)O [L-glutamic acid, L-Glutamic acid]
stabilization effect on glycated amino acid assay reagent (relative sensitivity) (R-FOD-II; [1]): stabilization effect

Oc1ccc2cc(SSc3ccc4cc(O)ccc4c3)ccc2c1 [Reagent 6, 2,2′-dihydroxy-6,6′-dinaphthyl disulfide]
effect of pretreatment on decreasing deviation from the immune method (albumin): particularly remarkable | albumin value by BCP method, sample GA (albumin; [2]): 7.6 | albumin value by BCP method, sample NGA (albumin; [2]): 36.9 | albumin value by BCP method, sample Blood serum of patients (albumin; [2]): 37.7 | albumin value by BCP method, sample Blood serum of healthy parsons (albumin; [3]): 39.1

O=C(O)c1ccccc1SSc1ccccc1C(=O)O [Reagent 3, 2,2′-dithiodibenzoic acid]
effect of pretreatment on decreasing deviation from the immune method (albumin): particularly remarkable | albumin value by BCP method, sample GA (albumin; [2]): 7.7 | albumin value by BCP method, sample NGA (albumin; [2]): 38.0 | albumin value by BCP method, sample Blood serum of patients (albumin; [2]): 35.0 | albumin value by BCP method, sample Blood serum of healthy parsons (albumin; [3]): 40.1

O=C(O)c1cc(SSc2ccc([N+](=O)[O-])c(C(=O)O)c2)ccc1[N+](=O)[O-] [Reagent 5, 5,5′-dithiobis-(2-nitrobenzoic acid)]
effect of pretreatment on decreasing deviation from the immune method (albumin): particularly remarkable | albumin value by BCP method, sample GA (albumin; [2]): 8.7 | albumin value by BCP method, sample NGA (albumin; [2]): 38.4 | albumin value by BCP method, sample Blood serum of patients (albumin; [2]): 35.5 | albumin value by BCP method, sample Blood serum of healthy parsons (albumin; [3]): 38.3

OC[C@@H](O)[C@@H](O)[C@H](O)[C@H](O)CO [mannitol, Mannitol]
stabilization effect on glycated amino acid assay reagent (relative sensitivity) (R-FOD-II; [1]): stabilization effect

OC[C@H]1O[C@H](O[C@H]2O[C@H](CO)[C@@H](O)[C@H](O)[C@H]2O)[C@H](O)[C@@H](O)[C@@H]1O [trehalose, Trehalose]
stabilization effect on glycated amino acid assay reagent (relative sensitivity) (R-FOD-II; [1]): stabilization effect
